Here are results for 22 compounds from ChEMBL document CHEMBL3608235, “Pyrroloaryls and pyrroloheteroaryls: Inhibitors of the HIV fusion/attachment, reverse transcriptase and integrase” (Bioorg Med Chem, 2015).

What is called EC50 is the midpoint of the concentration-response curve. As a reminder, the AC50 is the concentration at which the activity in the assay is half-maximal. One may read the IC50 as the concentration needed to halve the response being measured. High values mean lower potency, low ones higher potency. For orientation: IC90 means the concentration needed for an effect of 90%. As usually defined, the inhibition is the share of the control response that was lost under treatment. The low end stands for a response near the control, the high end for a response far below the control.

For series [1], the system named is Human immunodeficiency virus. In words: Antiviral activity against HIV infected in human MT4 cells assessed as reduction in virus-induced cytopathogenicity. It is filed as functional, organism-based. To be noted: Human immunodeficiency virus 1, MT4. (In general: Protection from cytopathic effect is a common read-out in antiviral testing.)
Series [2] in a line: Inhibition of HIV1 LTR-mediated transcription assessed as drug level causing 50% inhibition of protein/RNA complex formation incubated for 15 mins. Details: species or system Human immunodeficiency virus.
For series [3], the system named is Human immunodeficiency virus 1. The series can be described thus: Antiviral activity against HIV1. It counts as functional, organism-based.
The subject of series [4] is Human immunodeficiency virus 2. The series can be described thus: Antiviral activity against HIV2 by XTT assay. It counts as functional, organism-based. In general terms: Tetrazolium assays rely on reduction of a dye to a coloured formazan, in cell work by metabolically active cells.
In series [5] the test system is Human immunodeficiency virus. The series can be described thus: Antiviral activity against HIV by syncytial plaque assay. To be noted: Human immunodeficiency virus 1. It counts as functional, organism-based.
Series [6] relates to Human immunodeficiency virus 1. In words: Antiviral activity against HIV1 by XTT assay. It is filed as functional, organism-based.
Series [7] concerns Human immunodeficiency virus 1. The series can be described thus: Antiviral activity against HIV1 infected in human MT4 cells. It is filed as functional, organism-based. Particulars: Human immunodeficiency virus 1, MT4.
In series [8] the test system is Human immunodeficiency virus. The series can be described thus: Antiviral activity against HIV expressing raltegravir-resistant integrase mutants. It is filed as functional, organism-based. Particulars: Human immunodeficiency virus 1.
Series [9] has as its system Human immunodeficiency virus 1. In words: Antiviral activity against HIV1 3B infected in human MT2 cells assessed as reduction in virus-induced cell death. Particulars: Human immunodeficiency virus 1, 3B. It is filed as functional.
Another series concerns PBL. In words: Cytotoxicity against human PBL cells incubated for 4 days by MTT assay. It counts as cell-based. Particulars: 96 h.
The test system of series [10] is Human immunodeficiency virus 1. The series can be described thus: Antiviral activity against HIV1 3B infected in human primary lymphocytes assessed as reduction in p24 production incubated for 4 days by ELISA method. It is filed as functional, organism-based. To be noted: Human immunodeficiency virus 1, 3B, 96 h. A general note: ELISA stands for enzyme-linked immunosorbent assay.

Series [11] is described as follows: Cytotoxicity against human MT2 cells. It counts as cell-based. Particulars: read-out: TC50 (the source's name).
The target in series [12] is Human immunodeficiency virus type 1 reverse transcriptase (Human immunodeficiency virus 1) (UniProt Q72547). In words: Inhibition of HIV1 reverse transcriptase at 330 uM.
In series [13] the test system is Human immunodeficiency virus. In words: Antiviral activity against HIV. To be noted: Human immunodeficiency virus 1. It counts as functional, organism-based.
Series [14] concerns Human immunodeficiency virus 1. The series can be described thus: Antiviral activity against HIV1 BAL. It counts as functional, organism-based. To be noted: Human immunodeficiency virus 1, BAL.
In series [15] the test system is Human immunodeficiency virus 1. The series can be described thus: Antiviral activity against HIV1 NL4-3. It is filed as functional, organism-based. To be noted: Human immunodeficiency virus 1, NL4-3.
For series [16], the system named is Human immunodeficiency virus 1. In words: Antiviral activity against HIV1 JRFL. To be noted: Human immunodeficiency virus 1, JRFL. It is filed as functional, organism-based.
Series [17] concerns Human immunodeficiency virus 1. The series can be described thus: Antiviral activity against HIV1 SF2. It is filed as functional, organism-based. Particulars: Human immunodeficiency virus 1, SF2.
In series [18] the test system is Human immunodeficiency virus 1. In words: Antiviral activity against HIV1 TLAV. It counts as functional, organism-based. Particulars: Human immunodeficiency virus 1, TLAV.
Series [19] deals with Human immunodeficiency virus 1. In words: Antiviral activity against HIV1 SF162. It counts as functional, organism-based. To be noted: Human immunodeficiency virus 1, SF162.
In series [20] the test system is Human immunodeficiency virus 2. In words: Antiviral activity against HIV2 LAI. It is filed as functional, organism-based. Particulars: Human immunodeficiency virus 2, LAI.
For series [21], the system named is Human immunodeficiency virus 1. The series can be described thus: Antiviral activity against HIV1 infected in human C8166 cells assessed as inhibition of virus replication. It counts as functional, organism-based. Particulars: Human immunodeficiency virus 1, C8166.
The nature of series [22]: Cytotoxicity against human C8166 cells. It is filed as cell-based. Particulars: human, C8166 cells.

≈ marks a conversion by molar mass, not a printed value.

For the compound `COc1ccc(OCc2nc3ccccc3n3cccc23)cc1`, the EC50 in series [1] is more than 16 µg/mL.

Take `CCOC(=O)CCC(NC(=O)c1ccc(Nc2nc3cc(C(F)(F)F)ccc3n3cccc23)cc1)C(=O)OCC` (centres undefined): the EC50 in series [1] was more than 39 µg/mL.

With `COc1cc2c(cc1OCCC(=O)Nc1cc(C(=O)Nc3cc(C(=O)Nc4cc(C(=O)Nc5cc(C(=O)NCCC(=N)N)n(C)c5)n(C)c4)n(C)c3)n(C)c1)N=C[C@@H]1CCCN1C2=O`, the AC50 in series [2] worked out at 10 µM.

Consider `O=C(O)c1ccc(Nc2nc3cc(C(F)(F)F)ccc3n3cccc23)cc1`, for which the 50% effective concentration (EC50) in series [1] is more than 15 µg/mL.

Turning to `C[C@@H]1CN(C(=O)c2ccccc2)CCN1C(=O)C(=O)c1c[nH]c2cnccc12`, the EC50 in [3] worked out at 0.0216 µM.

For the compound `CN1N=C(N)c2cn([C@@H]3O[C@H](COP(=O)(O)O)[C@@H](O)[C@H]3O)c3ncnc1c23` [TRICIRIBINE PHOSPHATE], the concentration for half-maximal inhibition (IC50) in [4] came to 0.02 µM; in series [5], 0.01 µM; in series [6], 0.02 µM.

`CCOC(=O)c1cc2c3cc(OC)ccc3c3ccc(N)cc3n2c1C` showed a concentration for a half-maximal effect (EC50) in series [7] of 120 µM.

In the case of `CC(=O)OCC1=C2C(=O)N(Cc3ccc(F)c(Cl)c3)C(=O)C2=C(O)C(=O)C1`, in [8], it took 12.3 µM to reach half-maximal inhibition (IC50).

Consider `CN1C(=O)[C@H](Cc2ccc(O)cc2)n2cccc2-c2ccccc21`, for which the IC90 in series [9] is more than 0.29 µg/mL.

Turning to `O=C(C[C@H]1C(=O)Nc2ccccc2C2CCCN21)OCc1ccccc1` (some centres undefined), the 50% effective concentration (EC50) stood at 28.5 µM in the series with PBL and 0.86 µM in [10].

In the case of `COC(=O)CCC1=C2C(=O)N(Cc3ccc(F)c(Cl)c3)C(=O)C2=C(O)C(=O)C1C(C)C` (centres undefined), inhibition in series [8] was half-maximal at 7.1 µM (IC50).

Consider `O=C1c2ccccc2C(=O)N1CCCCCN1C(=O)[C@H](Cc2ccc(O)cc2)n2cccc2-c2ccccc21`, for which the IC90 in series [9] is 2.6 µg/mL (≈ 5 µM). For the same compound, the CC50 in [11] was more than 50 µg/mL.

Take `COc1ccc(Nc2nc3ccccc3n3cccc23)cc1OC`: the concentration giving a half-maximal response (EC50) in series [1] was more than 31 µg/mL.

For the compound `COc1ccc(Nc2nc3cc(C(F)(F)F)ccc3n3cccc23)cc1OC`, the 50% effective concentration (EC50) in [1] was more than 27 µg/mL.

Turning to `C[C@@H]1CN(C(=O)c2ccccc2)CCN1C(=O)C(=O)c1c[nH]c2cccnc12`, the EC50 in [3] was 0.0016 µM.

`O=C1c2cnncc2C2(c3ccccc3)NCCN12` (centres undefined) came in with an inhibition in [12] of 36%.

For `O=C(C[C@H]1C(=O)Nc2ccccc2-c2cccn21)OCc1ccccc1`, the IC90 in series [9] was 0.29 µg/mL (≈ 0.837 µM). In addition, the CC50 in [11] was 10 µg/mL (≈ 28.9 µM).

Take `CC1=C2C(=O)N(Cc3ccc(F)c(Cl)c3)C(=O)C2=C(O)C(=O)C1c1ccccc1` (centres undefined): half-maximal inhibition in [8] (IC50) was put at 6.4 µM.

In series [13], `CSc1c(C#N)c2c(N)ncnc2n1COC(CO)CO` came in with an IC50 of 20 µM.

Turning to `CC1=C2C(=O)N(Cc3ccc(F)c(Cl)c3)C(=O)C2=C(O)C(=O)C1C` (centres undefined), the IC50 in [8] is 6.7 µM.

Consider `O=C(C(=O)N1CCN(C(=O)c2ccccc2)CC1)c1c[nH]c2cccc(F)c12`, for which the EC50 in [14], in series [15], in series [16], in series [17], in series [18] and in series [19] was 0.85 µM throughout. This compound had an EC50 in [20] of 0.85 µM.

In the case of `CCOC(=O)c1ncc(O)c2c1C(=O)N(CCc1ccc(F)cc1)C2=O`, in series [21], the EC50 is 1.65 µM. The compound also had a CC50 in series [22] of 13.2 µM.
